Data reported in patent US9340590B2 (priority 2011, dated 2016).
Positions of bridges follow the written chain, without caps; N, C: chain ends. Non-standard residues stand in square brackets, D forms with d. Residues, ends and D or L forms follow the SMILES beside them. NMeF = CN[C@@H](Cc1ccccc1)C(=O)O

Tests used:
Assay in all cases: cell-based
hNav1.7 = hNav1.7 (Homo sapiens, UniProt Q15858); format: cell-based; settings: IonWorks Quattro, Use; read-out: IWQ Use Nav1.7
hNav1.5 = hNav1.5 (Homo sapiens, UniProt Q14524); settings: IonWorks Quattro, Use; read-out: IWQ Use Nav1.5
hNav1.3 = hNav1.3 (Homo sapiens, UniProt Q9NY46); settings: IonWorks Quattro, Use; read-out: IWQ Use Nav1.3
hNav1.3, sequence (Q9NY46 whole entry, looked up): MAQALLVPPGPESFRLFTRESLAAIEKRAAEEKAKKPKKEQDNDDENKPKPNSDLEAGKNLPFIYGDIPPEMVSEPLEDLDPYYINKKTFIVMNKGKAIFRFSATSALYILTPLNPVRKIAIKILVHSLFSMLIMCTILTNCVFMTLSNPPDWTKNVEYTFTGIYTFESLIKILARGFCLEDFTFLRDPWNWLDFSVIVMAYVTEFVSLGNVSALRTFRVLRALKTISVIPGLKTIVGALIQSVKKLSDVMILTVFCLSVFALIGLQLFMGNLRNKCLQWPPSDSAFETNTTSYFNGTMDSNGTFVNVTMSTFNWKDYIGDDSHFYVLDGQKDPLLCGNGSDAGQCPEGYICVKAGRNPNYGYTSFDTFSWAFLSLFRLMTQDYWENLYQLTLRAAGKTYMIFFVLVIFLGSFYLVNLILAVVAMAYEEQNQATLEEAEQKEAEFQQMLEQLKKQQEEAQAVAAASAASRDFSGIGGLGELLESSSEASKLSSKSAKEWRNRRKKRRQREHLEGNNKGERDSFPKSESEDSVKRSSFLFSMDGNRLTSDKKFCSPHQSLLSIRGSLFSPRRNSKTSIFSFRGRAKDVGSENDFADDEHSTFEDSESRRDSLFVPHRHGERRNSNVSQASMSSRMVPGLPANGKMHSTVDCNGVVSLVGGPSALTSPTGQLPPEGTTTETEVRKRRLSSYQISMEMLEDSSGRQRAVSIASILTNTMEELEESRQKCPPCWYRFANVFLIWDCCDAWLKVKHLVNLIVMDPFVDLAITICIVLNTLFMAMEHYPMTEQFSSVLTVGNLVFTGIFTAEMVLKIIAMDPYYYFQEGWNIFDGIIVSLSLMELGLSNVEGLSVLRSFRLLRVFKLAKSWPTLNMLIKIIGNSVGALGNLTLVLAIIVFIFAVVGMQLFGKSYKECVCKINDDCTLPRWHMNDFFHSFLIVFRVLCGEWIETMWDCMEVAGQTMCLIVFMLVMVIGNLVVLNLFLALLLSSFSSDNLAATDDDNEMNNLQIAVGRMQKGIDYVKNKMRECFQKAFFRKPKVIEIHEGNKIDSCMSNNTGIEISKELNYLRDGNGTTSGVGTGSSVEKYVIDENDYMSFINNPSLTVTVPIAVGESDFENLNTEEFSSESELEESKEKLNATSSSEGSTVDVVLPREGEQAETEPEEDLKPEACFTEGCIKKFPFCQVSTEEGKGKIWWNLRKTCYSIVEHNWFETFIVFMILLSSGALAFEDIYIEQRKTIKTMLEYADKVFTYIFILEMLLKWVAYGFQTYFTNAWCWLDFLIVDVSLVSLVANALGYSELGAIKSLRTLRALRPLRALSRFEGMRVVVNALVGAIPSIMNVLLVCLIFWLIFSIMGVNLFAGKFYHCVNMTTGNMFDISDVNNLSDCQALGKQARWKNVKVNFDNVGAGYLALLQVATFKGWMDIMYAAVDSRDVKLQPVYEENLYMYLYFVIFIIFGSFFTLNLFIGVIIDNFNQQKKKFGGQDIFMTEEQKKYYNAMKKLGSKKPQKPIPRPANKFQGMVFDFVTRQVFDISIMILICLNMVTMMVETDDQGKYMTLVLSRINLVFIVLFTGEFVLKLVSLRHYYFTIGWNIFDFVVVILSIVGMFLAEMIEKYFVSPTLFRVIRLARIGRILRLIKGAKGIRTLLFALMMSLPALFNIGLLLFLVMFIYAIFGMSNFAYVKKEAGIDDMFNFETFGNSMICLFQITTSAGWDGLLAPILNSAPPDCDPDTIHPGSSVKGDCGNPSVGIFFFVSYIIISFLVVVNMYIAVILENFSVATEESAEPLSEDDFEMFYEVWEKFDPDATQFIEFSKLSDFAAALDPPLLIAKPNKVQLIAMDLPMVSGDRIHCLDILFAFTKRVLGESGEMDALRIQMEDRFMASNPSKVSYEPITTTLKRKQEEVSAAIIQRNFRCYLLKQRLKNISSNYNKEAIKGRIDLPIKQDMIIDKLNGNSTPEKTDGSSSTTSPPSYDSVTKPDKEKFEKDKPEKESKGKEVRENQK

hNav1.7, sequence (Q15858 whole entry, looked up): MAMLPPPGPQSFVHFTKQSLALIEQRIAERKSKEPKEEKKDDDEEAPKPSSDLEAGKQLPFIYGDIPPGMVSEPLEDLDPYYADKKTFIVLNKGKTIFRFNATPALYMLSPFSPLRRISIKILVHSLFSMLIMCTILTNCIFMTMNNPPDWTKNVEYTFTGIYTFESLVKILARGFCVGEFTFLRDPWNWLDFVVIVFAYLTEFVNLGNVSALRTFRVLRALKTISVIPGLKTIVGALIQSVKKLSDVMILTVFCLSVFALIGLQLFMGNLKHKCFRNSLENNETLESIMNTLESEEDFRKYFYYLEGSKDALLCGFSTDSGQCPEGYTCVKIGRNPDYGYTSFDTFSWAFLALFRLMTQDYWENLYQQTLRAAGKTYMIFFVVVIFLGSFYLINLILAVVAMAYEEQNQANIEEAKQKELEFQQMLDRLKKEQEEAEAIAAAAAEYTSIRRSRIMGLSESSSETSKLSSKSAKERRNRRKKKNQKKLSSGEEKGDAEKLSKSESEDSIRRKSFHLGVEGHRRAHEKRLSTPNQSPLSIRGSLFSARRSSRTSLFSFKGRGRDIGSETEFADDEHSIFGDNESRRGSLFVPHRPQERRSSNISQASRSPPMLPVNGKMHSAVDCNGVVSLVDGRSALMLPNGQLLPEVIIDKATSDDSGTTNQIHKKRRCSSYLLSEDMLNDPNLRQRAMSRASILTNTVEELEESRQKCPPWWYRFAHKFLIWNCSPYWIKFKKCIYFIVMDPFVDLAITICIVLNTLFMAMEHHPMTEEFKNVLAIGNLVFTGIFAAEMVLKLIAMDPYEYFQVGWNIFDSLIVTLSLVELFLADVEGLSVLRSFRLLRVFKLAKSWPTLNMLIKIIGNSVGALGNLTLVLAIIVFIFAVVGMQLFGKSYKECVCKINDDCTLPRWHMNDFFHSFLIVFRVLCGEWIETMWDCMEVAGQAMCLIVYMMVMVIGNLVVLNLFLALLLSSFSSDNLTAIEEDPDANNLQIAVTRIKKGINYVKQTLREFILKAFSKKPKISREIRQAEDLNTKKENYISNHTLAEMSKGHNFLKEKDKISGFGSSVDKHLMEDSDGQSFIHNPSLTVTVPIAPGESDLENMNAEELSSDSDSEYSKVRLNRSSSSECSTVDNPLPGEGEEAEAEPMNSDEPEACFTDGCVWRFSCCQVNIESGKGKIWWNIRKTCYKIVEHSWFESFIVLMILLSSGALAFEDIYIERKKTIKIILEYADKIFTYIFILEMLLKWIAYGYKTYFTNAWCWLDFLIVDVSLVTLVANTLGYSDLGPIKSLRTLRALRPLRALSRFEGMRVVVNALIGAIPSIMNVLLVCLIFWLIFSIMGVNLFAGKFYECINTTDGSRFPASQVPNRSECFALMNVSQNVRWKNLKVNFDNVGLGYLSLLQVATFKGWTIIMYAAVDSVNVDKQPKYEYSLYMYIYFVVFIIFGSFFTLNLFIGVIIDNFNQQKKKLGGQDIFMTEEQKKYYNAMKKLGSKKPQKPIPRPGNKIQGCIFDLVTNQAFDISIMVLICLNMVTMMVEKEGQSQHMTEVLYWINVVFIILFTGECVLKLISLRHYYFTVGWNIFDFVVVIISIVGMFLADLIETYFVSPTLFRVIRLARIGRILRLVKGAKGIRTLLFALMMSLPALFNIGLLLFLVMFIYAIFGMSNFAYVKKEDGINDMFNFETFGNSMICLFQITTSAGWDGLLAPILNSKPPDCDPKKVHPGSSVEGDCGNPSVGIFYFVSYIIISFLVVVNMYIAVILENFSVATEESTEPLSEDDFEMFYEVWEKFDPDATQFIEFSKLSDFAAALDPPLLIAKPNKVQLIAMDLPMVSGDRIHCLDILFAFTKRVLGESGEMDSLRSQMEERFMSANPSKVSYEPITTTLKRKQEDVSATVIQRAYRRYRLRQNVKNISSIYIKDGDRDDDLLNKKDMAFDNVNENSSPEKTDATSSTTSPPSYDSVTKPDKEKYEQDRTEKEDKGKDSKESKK

SMILES	IC50 (hNav1.7)	IC50 (hNav1.5)	IC50 (hNav1.3)
CC[C@H](C)[C@@H]1NC(=O)[C@H](CC(C)C)NC(=O)[C@H](CC(N)=O)NC(=O)[C@@H]2CCCN2C(=O)[C@H](CCCNC(=N)N)NC(=O)[C@@H]2CSSC[C@H](NC(=O)[C@@H](N)CC(=O)O)C(=O)N[C@@H](CC(C)C)C(=O)NCC(=O)N[C@@H](Cc3ccccc3)C(=O)N[C@@H](CCSC)C(=O)N[C@@H](CCCNC(=N)N)C(=O)N[C@@H](CCCCN)C(=O)N[C@H]3CSSC[C@H](NC1=O)C(=O)N[C@@H](CO)C(=O)N[C@@H](CCCNC(=N)N)C(=O)N[C@@H]([C@@H](C)O)C(=O)N[C@@H](Cc1c[nH]cn1)C(=O)N[C@@H](CCCCN)C(=O)N[C@@H](Cc1c[nH]c4ccccc14)C(=O)N[C@H](C(=O)N[C@@H](CCCCN)C(=O)N[C@@H](Cc1ccc(O)cc1)C(=O)N[C@H](C(=O)N[C@@H](Cc1ccccc1)C(N)=O)C(C)C)CSSC[C@H](NC(=O)[C@H](CCCCN)NC(=O)[C@H](CC(=O)O)NC(=O)[C@H](CC(N)=O)NC(=O)[C@H](CC(=O)O)NC(=O)[C@@H]1CCCN1C(=O)[C@H]([C@@H](C)CC)NC3=O)C(=O)N2 [compound 321] (H-DCLGFMRKCIPDNDKCCRPNLICSRTHKWCKYVF-NH2; disulfide 2-17, 9-23, 16-30)	80 nM	11500 nM	70 nM
CC[C@H](C)[C@@H]1NC(=O)[C@@H]2CSSC[C@@H]3NC(=O)[C@H](CC(C)C)NC(=O)[C@H](CC(C)C)NC(=O)[C@H](CC(N)=O)NC(=O)[C@@H]4CCCN4C(=O)[C@H](CCCNC(=N)N)NC(=O)[C@H](CSSC[C@H](NC(=O)[C@@H](N)CC(=O)O)C(=O)N[C@@H](CC(C)C)C(=O)NCC(=O)N[C@@H](Cc4ccccc4)C(=O)N[C@@H](CCSC)C(=O)N[C@@H](CCCNC(=N)N)C(=O)N[C@@H](CCCCN)C(=O)N2)NC(=O)[C@H](CSSC[C@@H](C(=O)N[C@@H](CCCCN)C(=O)N[C@@H](Cc2ccc(O)cc2)C(=O)N[C@H](C(=O)N[C@@H](Cc2ccccc2)C(N)=O)C(C)C)NC(=O)[C@H](Cc2c[nH]c4ccccc24)NC(=O)[C@H](CCCCN)NC(=O)[C@H](Cc2c[nH]cn2)NC(=O)[C@H]([C@@H](C)O)NC(=O)[C@H](CCCNC(=N)N)NC(=O)[C@H](CO)NC3=O)NC(=O)[C@H](CCCCN)NC(=O)[C@H](CC(=O)O)NC(=O)[C@H](CC(N)=O)NC(=O)[C@H](CC(=O)O)NC(=O)[C@@H]2CCCN2C1=O [compound 322] (H-DCLGFMRKCIPDNDKCCRPNLLCSRTHKWCKYVF-NH2; disulfide 2-17, 9-23, 16-30)	90 nM	9580 nM	70 nM
CC[C@H](C)[C@@H]1NC(=O)[C@@H]2CSSC[C@@H]3NC(=O)[C@H](CO)NC(=O)[C@H](CC(C)C)NC(=O)[C@H](CC(N)=O)NC(=O)[C@@H]4CCCN4C(=O)[C@H](CCCNC(=N)N)NC(=O)[C@H](CSSC[C@H](NC(=O)[C@@H](N)CC(=O)O)C(=O)N[C@@H](CC(C)C)C(=O)NCC(=O)N[C@@H](Cc4ccccc4)C(=O)N[C@@H](CCSC)C(=O)N[C@@H](CCCNC(=N)N)C(=O)N[C@@H](CCCCN)C(=O)N2)NC(=O)[C@H](CSSC[C@@H](C(=O)N[C@@H](CCCCN)C(=O)N[C@@H](Cc2ccc(O)cc2)C(=O)N[C@H](C(=O)N[C@@H](Cc2ccccc2)C(N)=O)C(C)C)NC(=O)[C@H](Cc2c[nH]c4ccccc24)NC(=O)[C@H](CCCCN)NC(=O)[C@H](Cc2c[nH]cn2)NC(=O)[C@H]([C@@H](C)O)NC(=O)[C@H](CCCNC(=N)N)NC(=O)[C@H](CO)NC3=O)NC(=O)[C@H](CCCCN)NC(=O)[C@H](CC(=O)O)NC(=O)[C@H](CC(N)=O)NC(=O)[C@H](CC(=O)O)NC(=O)[C@@H]2CCCN2C1=O [compound 323] (H-DCLGFMRKCIPDNDKCCRPNLSCSRTHKWCKYVF-NH2; disulfide 2-17, 9-23, 16-30)	100 nM	4420 nM	90 nM
CC[C@H](C)[C@@H]1NC(=O)[C@@H]2CSSC[C@@H]3NC(=O)CNC(=O)[C@H](CC(C)C)NC(=O)[C@H](CC(N)=O)NC(=O)[C@@H]4CCCN4C(=O)[C@H](CCCNC(=N)N)NC(=O)[C@H](CSSC[C@H](NC(=O)[C@@H](N)CC(=O)O)C(=O)N[C@@H](CC(C)C)C(=O)NCC(=O)N[C@@H](Cc4ccccc4)C(=O)N[C@@H](CCSC)C(=O)N[C@@H](CCCNC(=N)N)C(=O)N[C@@H](CCCCN)C(=O)N2)NC(=O)[C@H](CSSC[C@@H](C(=O)N[C@@H](CCCCN)C(=O)N[C@@H](Cc2ccc(O)cc2)C(=O)N[C@H](C(=O)N[C@@H](Cc2ccccc2)C(N)=O)C(C)C)NC(=O)[C@H](Cc2c[nH]c4ccccc24)NC(=O)[C@H](CCCCN)NC(=O)[C@H](Cc2c[nH]cn2)NC(=O)[C@H]([C@@H](C)O)NC(=O)[C@H](CCCNC(=N)N)NC(=O)[C@H](CO)NC3=O)NC(=O)[C@H](CCCCN)NC(=O)[C@H](CC(=O)O)NC(=O)[C@H](CC(N)=O)NC(=O)[C@H](CC(=O)O)NC(=O)[C@@H]2CCCN2C1=O [compound 324] (H-DCLGFMRKCIPDNDKCCRPNLGCSRTHKWCKYVF-NH2; disulfide 2-17, 9-23, 16-30)	140 nM	10900 nM	100 nM
CC[C@H](C)[C@@H]1NC(=O)[C@@H]2CSSC[C@@H]3NC(=O)[C@H](CC(N)=O)NC(=O)[C@H](CC(C)C)NC(=O)[C@H](CC(N)=O)NC(=O)[C@@H]4CCCN4C(=O)[C@H](CCCNC(=N)N)NC(=O)[C@H](CSSC[C@H](NC(=O)[C@@H](N)CC(=O)O)C(=O)N[C@@H](CC(C)C)C(=O)NCC(=O)N[C@@H](Cc4ccccc4)C(=O)N[C@@H](CCSC)C(=O)N[C@@H](CCCNC(=N)N)C(=O)N[C@@H](CCCCN)C(=O)N2)NC(=O)[C@H](CSSC[C@@H](C(=O)N[C@@H](CCCCN)C(=O)N[C@@H](Cc2ccc(O)cc2)C(=O)N[C@H](C(=O)N[C@@H](Cc2ccccc2)C(N)=O)C(C)C)NC(=O)[C@H](Cc2c[nH]c4ccccc24)NC(=O)[C@H](CCCCN)NC(=O)[C@H](Cc2c[nH]cn2)NC(=O)[C@H]([C@@H](C)O)NC(=O)[C@H](CCCNC(=N)N)NC(=O)[C@H](CO)NC3=O)NC(=O)[C@H](CCCCN)NC(=O)[C@H](CC(=O)O)NC(=O)[C@H](CC(N)=O)NC(=O)[C@H](CC(=O)O)NC(=O)[C@@H]2CCCN2C1=O [compound 325] (H-DCLGFMRKCIPDNDKCCRPNLNCSRTHKWCKYVF-NH2; disulfide 2-17, 9-23, 16-30)	240 nM	8070 nM	90 nM
CC[C@H](C)[C@@H]1NC(=O)[C@@H]2CSSC[C@@H]3NC(=O)[C@H](Cc4c[nH]cn4)NC(=O)[C@H](CC(C)C)NC(=O)[C@H](CC(N)=O)NC(=O)[C@@H]4CCCN4C(=O)[C@H](CCCNC(=N)N)NC(=O)[C@H](CSSC[C@H](NC(=O)[C@@H](N)CC(=O)O)C(=O)N[C@@H](CC(C)C)C(=O)NCC(=O)N[C@@H](Cc4ccccc4)C(=O)N[C@@H](CCSC)C(=O)N[C@@H](CCCNC(=N)N)C(=O)N[C@@H](CCCCN)C(=O)N2)NC(=O)[C@H](CSSC[C@@H](C(=O)N[C@@H](CCCCN)C(=O)N[C@@H](Cc2ccc(O)cc2)C(=O)N[C@H](C(=O)N[C@@H](Cc2ccccc2)C(N)=O)C(C)C)NC(=O)[C@H](Cc2c[nH]c4ccccc24)NC(=O)[C@H](CCCCN)NC(=O)[C@H](Cc2c[nH]cn2)NC(=O)[C@H]([C@@H](C)O)NC(=O)[C@H](CCCNC(=N)N)NC(=O)[C@H](CO)NC3=O)NC(=O)[C@H](CCCCN)NC(=O)[C@H](CC(=O)O)NC(=O)[C@H](CC(N)=O)NC(=O)[C@H](CC(=O)O)NC(=O)[C@@H]2CCCN2C1=O [compound 326] (H-DCLGFMRKCIPDNDKCCRPNLHCSRTHKWCKYVF-NH2; disulfide 2-17, 9-23, 16-30)	410 nM	15600 nM	100 nM
CC[C@H](C)[C@@H]1NC(=O)[C@@H]2CSSC[C@@H]3NC(=O)[C@H](CC(=O)O)NC(=O)[C@H](CC(C)C)NC(=O)[C@H](CC(N)=O)NC(=O)[C@@H]4CCCN4C(=O)[C@H](CCCNC(=N)N)NC(=O)[C@H](CSSC[C@H](NC(=O)[C@@H](N)CC(=O)O)C(=O)N[C@@H](CC(C)C)C(=O)NCC(=O)N[C@@H](Cc4ccccc4)C(=O)N[C@@H](CCSC)C(=O)N[C@@H](CCCNC(=N)N)C(=O)N[C@@H](CCCCN)C(=O)N2)NC(=O)[C@H](CSSC[C@@H](C(=O)N[C@@H](CCCCN)C(=O)N[C@@H](Cc2ccc(O)cc2)C(=O)N[C@H](C(=O)N[C@@H](Cc2ccccc2)C(N)=O)C(C)C)NC(=O)[C@H](Cc2c[nH]c4ccccc24)NC(=O)[C@H](CCCCN)NC(=O)[C@H](Cc2c[nH]cn2)NC(=O)[C@H]([C@@H](C)O)NC(=O)[C@H](CCCNC(=N)N)NC(=O)[C@H](CO)NC3=O)NC(=O)[C@H](CCCCN)NC(=O)[C@H](CC(=O)O)NC(=O)[C@H](CC(N)=O)NC(=O)[C@H](CC(=O)O)NC(=O)[C@@H]2CCCN2C1=O [compound 327] (H-DCLGFMRKCIPDNDKCCRPNLDCSRTHKWCKYVF-NH2; disulfide 2-17, 9-23, 16-30)	1500 nM	13300 nM	630 nM
CC[C@H](C)[C@@H]1NC(=O)[C@@H]2CSSC[C@@H]3NC(=O)[C@H](Cc4ccccc4)N(C)C(=O)[C@H](CC(C)C)NC(=O)[C@H](CC(N)=O)NC(=O)[C@@H]4CCCN4C(=O)[C@H](CCCNC(=N)N)NC(=O)[C@H](CSSC[C@H](NC(=O)[C@@H](N)CC(=O)O)C(=O)N[C@@H](CC(C)C)C(=O)NCC(=O)N[C@@H](Cc4ccccc4)C(=O)N[C@@H](CCSC)C(=O)N[C@@H](CCCNC(=N)N)C(=O)N[C@@H](CCCCN)C(=O)N2)NC(=O)[C@H](CSSC[C@@H](C(=O)N[C@@H](CCCCN)C(=O)N[C@@H](Cc2ccc(O)cc2)C(=O)N[C@H](C(=O)N[C@@H](Cc2ccccc2)C(N)=O)C(C)C)NC(=O)[C@H](Cc2c[nH]c4ccccc24)NC(=O)[C@H](CCCCN)NC(=O)[C@H](Cc2c[nH]cn2)NC(=O)[C@H]([C@@H](C)O)NC(=O)[C@H](CCCNC(=N)N)NC(=O)[C@H](CO)NC3=O)NC(=O)[C@H](CCCCN)NC(=O)[C@H](CC(=O)O)NC(=O)[C@H](CC(N)=O)NC(=O)[C@H](CC(=O)O)NC(=O)[C@@H]2CCCN2C1=O [compound 328] (H-DCLGFMRKCIPDNDKCCRPNL[NMeF]CSRTHKWCKYVF-NH2; disulfide 2-17, 9-23, 16-30)	20600 nM	20400 nM	7370 nM
